{"source": "patent US5811512A", "about": "“Non-peptide peptidomimetics and related cyclic hexapeptides” (The Trustees of the University of Pennsylvania, priority 1996, dated 1998)", "key": {"[1]": {"target": "T1, human neurokinin-1 receptor (NK1R) (Homo sapiens, UniProt P25103)", "T1 construct": "the cDNA for the human NK1R was cloned into the expression vector pCDM9; expressed in transfected cells; host or cells: COS cells (transient, electroporation, vector pCDM9)", "T1 sequence (P25103 whole entry)": "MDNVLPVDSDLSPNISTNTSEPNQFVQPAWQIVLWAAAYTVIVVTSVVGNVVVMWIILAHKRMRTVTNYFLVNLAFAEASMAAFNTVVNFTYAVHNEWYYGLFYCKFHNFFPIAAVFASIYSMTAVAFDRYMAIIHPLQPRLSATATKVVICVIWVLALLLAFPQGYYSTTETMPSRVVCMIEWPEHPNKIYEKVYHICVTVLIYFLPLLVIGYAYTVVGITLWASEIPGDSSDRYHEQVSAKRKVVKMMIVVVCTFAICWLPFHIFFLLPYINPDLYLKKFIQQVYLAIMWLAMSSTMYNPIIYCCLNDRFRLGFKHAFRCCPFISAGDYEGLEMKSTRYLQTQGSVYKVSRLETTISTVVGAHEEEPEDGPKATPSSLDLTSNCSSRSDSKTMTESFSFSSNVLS", "assay": "Substance P receptor binding: 125I-substance P displacement from human NK1R expressed in COS cells", "details": "for IC50: 125I-SP, COS cells expressing human NK1R, read-out: IC50 (concentration required to inhibit the binding of substance P to the human neurokinin-1 receptor by 50%)", "description": "The affinity of a variety of compounds for the substance P receptor was determined employing the following procedure.\nA. Receptor Expression in COS\nTo express the cloned human neurokinin-1 receptor (NK1R) transiently in COS, the cDNA for the human NK1R was cloned into the expression vector pCDM9 which was derived from pCDM8 (Invitrogen) by inserting the ampicillin resistance gene (nucleotide 1973 to 2964 from Bluescript SK+) into the Sac II site. Transfection of 20 μg of the plasmid DNA into 10 million COS cells was achieved by electroporation in 800 μl of the transfection buffer ([…], 1.2 mM MgCl2, 2.4 mM K2 HPO4, 0.6 mM KH2 PO4, 10 nM glucose, 10 mM HEPES pH 7.4) at 260V and 950 μF using the IBI Genezapper (IBI, New Haven, Conn.). The cells were incubated in 10% fetal calf serum, 2 mM glutamine, 100 U/ml penicillin-streptomycin, and 90% DMEM media (Gibco, Grand Island, N.Y.) in 5% CO2 at 37° C. for three days before the binding assay.\nB. Assay Protocol using COS\nThe binding assay of human NK1R expressed in COS cells is based on the use of ^125 I-substance P (^125 I-SP, from DuPont, Boston, Mass.) as a radioactively labeled ligand which competes with unlabeled substance P or any other ligand for binding to the human NK1R. Monolayer cell cultures of COS were dissociated by the non-enzymatic solution (Specialty Media, Lavallette, N.J.) and resuspended in appropriate volume of the bind buffer (50 mM Tris pH 7.5, 5 mM MnCl2, 150 mM NaCl, 0.04 mg/ml bacitracin, 0.004 mg/ml leupeptin, 0.2 mg/ml BSA, 0.01 mM phosphoramidon) such that 200 μl of the cell suspension would give rise to about 10,000 cpm of specific ^125 I-SP binding (approximately 50,000 to 200,000 cells). In the binding assay, 200 μl of cells were added to a tube containing 20 μl of 1.5 to 2.5 nM of ^125 I-SP and 20 μl of unlabeled substance P or any other test compound. The tubes were incubated at 4° C. or at room temperature for 1 hour with gentle shaking. The bound radioactivity was separated from unbound radioactivity by GF/C filter (Brandel, Gaithersburg, Md.) which was pre-wetted with 0.1 polyethylenimine. The filter was washed with 3 ml of wash buffer (50 Tris pH 7.5, 5 mM MnCl21 150 mM NaCl) three times and its radioactivity was determined by gamma counter.\nA variety of compounds were tested according to the COS cell procedure. The concentration of compound required to inhibit the binding of substance P to the human neurokinin-1 receptor by 50% was measured."}, "[2]": {"test_system": "SRIF receptor", "assay": "SRIF receptor affinity: displacement of 125I-CGP-23996 from AtT-20 cells", "assay_type": "binding", "description": "The affinity of a variety of compounds for the SRIF receptor was determined by studying the displacement of ^125 I-CGP-23996 from AtT-20 cells using the method generally in accordance with Raynor and Reisine, Journal of Pharmacology and Experimental Therapeutics, 1989, 251;2, 510."}, "[3]": {"test_system": "β-adrenergic receptor", "assay": "Radioligand displacement from AtT-20 and brain cells, β-adrenergic receptor", "assay_type": "binding", "details": "for Binding Inhibition: 125I-CYP (0.1 nM)"}, "[4]": {"test_system": "Opiate Receptor", "assay": "Radioligand displacement from brain cells, opiate receptor", "assay_type": "binding", "details": "3H-naloxone (0.5 nM)"}, "[5]": {"test_system": "Dopamine Receptor", "assay": "Radioligand displacement from brain cells, dopamine receptor", "assay_type": "binding", "details": "3H-spiperone (0.1 nM)"}, "[6]": {"test_system": "Muscarinic cholingeric", "assay_type": "binding", "details": "3H-QNB (0.1 nM)"}, "[7]": {"test_system": "somatostatin receptors of AtT-20 cells", "details": "read-out: IC50 for binding somatostatin receptors of AtT-20 cells, cited from earlier work"}, "[8]": {"test_system": "β-adrenergicreceptor", "details": "AtT-20 cells; cited from earlier work"}, "[9]": {"details": "displacement of 125I-CGP-23996, AtT-20 cells"}}, "note": "Like-named read-outs stand apart in the source and are kept apart here.", "data": [{"molecule": "CC(=O)NCCCCCOC[C@H]1O[C@@H](OCCc2cn(S(=O)(=O)c3ccccc3)c3ccccc23)[C@H](OCc2ccccc2)[C@@H](OCc2ccccc2)[C@@H]1OCc1ccccc1", "note": "[Compound 7, 2-(1-Phenylsulfonyl-indol-3yl)ethyl-6-O-(5-acetamidopentyl)-2,3,4-tri-O-benzyl-β-D-glucopyranoside]", "values": [{"measurement": "IC50", "setting": "[1]", "result": 56, "unit": "nM"}]}, {"molecule": "NCCCCCOC[C@H]1O[C@@H](OCCc2c[nH]c3ccccc23)[C@H](OCc2ccccc2)[C@@H](OCc2ccccc2)[C@@H]1OCc1ccccc1", "note": "[Compound 1, 2-(1H-Indol-3yl)ethyl-6-O-(5-aminopentyl)-2,3,4-tri-O-benzyl-β-D-glucopyranoside]", "values": [{"measurement": "IC50", "setting": "[1]", "result": 120, "unit": "nM"}, {"measurement": "IC50", "setting": "[2]; [9]", "result": 9500, "unit": "nM"}, {"measurement": "Binding Inhibition", "setting": "[3]; AtT-20", "result": "~70", "unit": "%"}, {"measurement": "Binding Inhibition", "setting": "[3]; Brain", "result": 45, "unit": "%"}, {"measurement": "Binding Inhibition", "setting": "[4]", "result": 55, "unit": "%"}, {"measurement": "Binding Inhibition", "setting": "[5]", "result": 82, "unit": "%"}, {"measurement": "Binding Inhibition", "setting": "[6]; AtT-20", "result": 20, "unit": "%"}, {"measurement": "Binding Inhibition", "setting": "[6]; Brain", "result": 83, "unit": "%"}, {"measurement": "IC50", "setting": "[7]", "result": "~9500", "unit": "nM"}, {"measurement": "concentration required for β-adrenergic receptor binding relative to somatostatin receptor", "setting": "[8]", "result": "five fold higher concentration"}]}, {"molecule": "CO[C@@H]1O[C@H](COCCCCCN)[C@@H](OCc2ccccc2)[C@H](OCc2ccccc2)[C@H]1OCc1ccccc1", "note": "[Compound 8, Methyl 6-O-(5-aminopentyl)-2,3,4-tri-O-benzyl-β-D-glucopyranoside]", "values": [{"measurement": "binding to substance P receptor", "setting": "[1]", "result": "is bound by"}, {"measurement": "IC50", "setting": "[1]", "result": 840, "unit": "nM"}, {"measurement": "binding to SRIF receptor", "setting": "[2]", "result": "is bound by"}, {"measurement": "IC50", "setting": "[2]; [9]", "result": 40000, "unit": "nM"}, {"measurement": "binding to β-adrenergic receptor", "setting": "[3]", "result": "does not bind"}, {"measurement": "Binding Inhibition", "setting": "[3]; AtT-20", "result": 0, "unit": "%"}]}, {"molecule": "CO[C@@H]1O[C@H](COCCCCCNC(=O)C(F)(F)F)[C@@H](OCc2ccccc2)[C@H](OCc2ccccc2)[C@H]1OCc1ccccc1", "note": "[Compound 13, Methyl 2,3,4-tri-O-benzyl-6-O-(N-trifluoroacetyl-5-aminopentyl)-β-D-glucopyranoside]", "values": [{"measurement": "IC50", "setting": "[1]", "result": 1000, "unit": "nM"}, {"measurement": "IC50 (affinity for the SRIF receptor)", "setting": "[2]; [9]", "result": "does not bind"}]}, {"molecule": "2-(1H-indol-3-yl)ethyl-6-O-(5-aminopentyl)-2,4-di-O-deoxy-β-D-glucopyranoside [Compound 2]", "values": [{"measurement": "IC50", "setting": "[1]", "result": 180, "unit": "nM"}, {"measurement": "IC50", "setting": "[2]; [9]", "result": 1300, "unit": "nM"}, {"measurement": "IC50", "setting": "[7]", "result": "~1000", "unit": "nM"}]}, {"molecule": "C[C@H](N)C(=O)NCC(=O)N[C@H]1CSSC[C@@H](C(=O)O)NC(=O)[C@H](CO)NC(=O)[C@H]([C@@H](C)O)NC(=O)[C@H](Cc2ccccc2)NC(=O)[C@H]([C@@H](C)O)NC(=O)[C@H](CCCCN)NC(=O)[C@H](Cc2c[nH]c3ccccc23)NC(=O)[C@H](Cc2ccccc2)NC(=O)[C@H](Cc2ccccc2)NC(=O)[C@H](CC(N)=O)NC(=O)[C@H](CCCCN)NC1=O", "note": "[SRIF, somatostatin, reference compound]", "values": [{"measurement": "IC50", "setting": "[2]; [9]", "result": 9.3, "unit": "nM"}, {"measurement": "IC50", "setting": "[7]; also printed as 9.3×10^-9 M", "result": "~9.3", "unit": "nM"}]}, {"molecule": "OC[C@@H]1C[C@H](OCc2ccccc2)[C@@H](OCc2ccccc2)[C@H](OCCc2c[nH]c3ccccc23)O1", "note": "[Compound 11, 2-Indol-3-yl-ethyl-2,3,-di-O-benzyl-4-deoxy-β-D-glucopyranoside]", "values": [{"measurement": "IC50", "setting": "[1]", "result": 400, "unit": "nM"}]}]}
